# Residues, ends and D or L forms follow the SMILES beside them. *: point of attachment. X2 = O=C(N/N=C1/CC[C@@]2(O)[C@H]3Cc4ccc(O)c5c4[C@@]2(CCN3CC2CC2)[C@H]1O5)*; X1 = CN1CC[C@]23c4c5ccc(O)c4O[C@H]2/C(=N\NC(=O)*)CC[C@@]3(O)[C@H]1C5
# Target: not listed separately
# Experiment: Binding affinity against Opioid receptor delta 1 of guinea pig brain membranes using 1 nM of [3H]DADLE as radioligand
row,Compound,Ki [nM]
1,CC[C@H](C)[C@H](NC(=O)[C@H](CCCN=C(N)N)NC(=O)[C@H](CCCN=C(N)N)NC(=O)[C@H](CC(C)C)NC(=O)[C@H](Cc1ccccc1)NC(=O)N/N=C1/CC[C@@]2(O)[C@H]3Cc4ccc(O)c5c4[C@@]2(CCN3C)[C@H]1O5)C(=O)OC (X1-FLRRI-OMe),24
2,CC[C@H](C)[C@H](NC(=O)[C@H](CCCN=C(N)N)NC(=O)[C@H](CCCN=C(N)N)NC(=O)[C@H](CC(C)C)NC(=O)[C@H](Cc1ccccc1)NC(=O)N/N=C1/CC[C@@]2(O)[C@H]3Cc4ccc(O)c5c4[C@@]2(CCN3CC2CC2)[C@H]1O5)C(=O)OC (X2-FLRRI-OMe),5.7
3,CC(C)CC(NC(=O)C(Cc1ccccc1)NC(=O)NN=C1CC[C@@]2(O)C3Cc4ccc(O)c5c4C2(CCN3C)[C@H]1O5)C(=O)O (stereo partly drawn),6.5
4,CN1CCC23c4c5ccc(O)c4O[C@H]2C(=NNC(N)=O)CC[C@@]3(O)C1C5 (stereo partly drawn),69
5,NC(=O)NN=C1CC[C@@]2(O)C3Cc4ccc(O)c5c4C2(CCN3CC2CC2)[C@H]1O5 (stereo partly drawn),3.7
6,CC[C@H](C)[C@H](NC(=O)[C@H](CCCNC(=N)N)NC(=O)[C@H](CCCNC(=N)N)NC(=O)[C@H](CC(C)C)NC(=O)[C@H](Cc1ccccc1)NC(=O)CNC(=O)CNC(=O)[C@@H](N)Cc1ccc(O)cc1)C(=O)OC,50
7,CC(C)CC(NC(=O)C(Cc1ccccc1)NC(=O)NN=C1CC[C@@]2(O)C3Cc4ccc(O)c5c4C2(CCN3CC2CC2)[C@H]1O5)C(=O)O (stereo partly drawn),3.1

# Target: Mu-type opioid receptor (Cavia porcellus, UniProt P97266)
# Experiment: ChEBML_145291
# Chain of Mu-type opioid receptor (P97266 whole entry): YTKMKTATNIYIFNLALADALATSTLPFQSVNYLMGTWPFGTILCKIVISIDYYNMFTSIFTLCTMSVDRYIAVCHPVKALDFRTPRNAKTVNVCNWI
row,Compound,Ki [nM]
1,CN1CCC23c4c5ccc(O)c4O[C@H]2C(=NNC(N)=O)CC[C@@]3(O)C1C5 (stereo partly drawn),15

# Reference: BindingDB's records for doi:10.1021/jm00157a018 (1987)
